Reference: publication PMC6934184, “Selective DNA-PKcs inhibition extends the therapeutic index of localized radiotherapy and chemotherapy” (The Journal of Clinical Investigation, 2019)

Target: T1, CDK3/cyclin E1 (Homo sapiens, UniProt Q00526)
T1 construct: purchased Thermo Fisher Scientific (Life Technologies) SelectScreen
Experiment: SelectScreen LanthaScreen
Format: binding
Details: 1 µM
Outline: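 NU5455 was profiled across the SelectScreen Broad panel of kinase activity and binding assays. Z'LYTE reactions such as CSF1R ran at apparent Km ATP, while the Adapta CAMK1 assay used ATP listed as 10. Values are given as percent.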

T1 sequence (Q00526 whole entry): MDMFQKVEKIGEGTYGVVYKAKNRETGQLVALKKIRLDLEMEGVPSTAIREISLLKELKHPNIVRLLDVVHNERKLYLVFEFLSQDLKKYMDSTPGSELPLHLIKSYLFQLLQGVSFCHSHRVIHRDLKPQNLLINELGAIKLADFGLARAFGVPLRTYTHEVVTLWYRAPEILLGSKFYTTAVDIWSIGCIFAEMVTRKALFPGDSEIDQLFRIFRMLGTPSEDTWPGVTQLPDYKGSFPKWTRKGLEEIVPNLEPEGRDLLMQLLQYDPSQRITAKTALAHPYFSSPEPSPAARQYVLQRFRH
T1 sequence (P24864 whole entry partner): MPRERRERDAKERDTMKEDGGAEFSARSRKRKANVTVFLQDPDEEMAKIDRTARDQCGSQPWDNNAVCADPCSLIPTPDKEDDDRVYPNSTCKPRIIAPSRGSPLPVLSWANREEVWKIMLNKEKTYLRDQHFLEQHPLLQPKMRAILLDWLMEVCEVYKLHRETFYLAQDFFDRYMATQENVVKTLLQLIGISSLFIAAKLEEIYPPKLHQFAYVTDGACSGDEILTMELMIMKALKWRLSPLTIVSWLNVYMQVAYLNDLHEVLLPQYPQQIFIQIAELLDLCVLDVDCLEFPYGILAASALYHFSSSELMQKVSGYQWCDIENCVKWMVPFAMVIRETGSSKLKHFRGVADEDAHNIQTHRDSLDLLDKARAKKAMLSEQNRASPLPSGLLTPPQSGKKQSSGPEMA

SMILES: CN(C(=O)CN1CCOCC1)c1ccc2sc3c(-c4cccc5c(=O)cc(N6CC7CCC(C6)O7)oc45)cccc3c2c1 [NU5455]
- % displacement: 1.9%
